{"source": "patent US10953027B2", "about": "“Active agents and methods of their use for the treatment of metabolic disorders and nonalcoholic fatty liver disease” (Flagship Pioneering Innovations V, Inc., priority 2018, dated 2021)", "key": {"[1]": {"test_system": "AhR", "experiment": "AhR activation in Caco-2 cells through CYP1A1 mRNA expression", "experimental": "Caco-2 cells from American Type Culture Collection (ATCC) were plated in a sterile tissue culture treated 96-well plate (ThermoFisher) at […] per well, and grown overnight at 37° C., 5% CO2 in DMEM complete (Gibco) in order to achieve confluence. After the incubation medium was aspirated from the Caco-2 monolayers, tissues were then washed with 200 μL of warmed PBS solution, and subsequently 190 μL of pre-warmed growth medium was added to each well. Compounds of interest were diluted at a 20× concentration in growth medium containing 2% DMSO, and 10 μL of compound solutions were added to respective wells in triplicate. Compounds where incubated overnight at 37° C., 5% CO2. 2-(1′H-indole-3′-carbonyl)-thiazole-4-carboxylic acid methyl ester (ITE) was used as the positive control for AhR activation at 1 and 100 μM concentrations. At the end of the incubation, medium was aspirated off of the Caco-2 cells, and washed with 100 μL of cold PBS solution. RNA was extracted via the TaqMan™ Gene Expression Cells-to-CT™ Kit (ThermoFisher) according to the manufacturers protocol. The QuantStudio 6 Flex (Applied Biosciences) was used to analyze mRNA levels of CYP1A1 using GAPDH as the endogenous control. TaqMan™ probe sets for both genes were acquired from ThermoFisher. Samples were run in triplicate and data was analyzed using the QuantStudio software and reported as linear (Table 1) and log 2(ΔΔCT) values. Statistical analysis was performed using a two-tailed t-test comparing CYP1A1 levels in the presence of each individual compound to the vehicle negative control."}, "[2]": {"test_system": "Caco-2 colonocytes", "experiment": "Human Caco-2 barrier integrity assay (TEER)", "assay_type": "cell-based", "settings": "48 hours", "experimental": "Caco-2 colonocytes were maintained at 37° C. and 5% CO2 in Dulbecco's Modified Eagle Medium (DMEM) and supplemented with 10% FBS, 1% NEAA, 1% penicillin-streptomycin. At 70-80% confluency, cells were trypsinized and seeded in 0.4 cm^2 transwell collagen I coated membranes with supplemented DMEM in both apical and basolateral compartments. Cells were seeded at a density of 200,000 cells per well and maintained for 10 days to form a polarized barrier with a TransEpithelial Electrial Resistance (TEER) reading above 1000Ω. On the first day of the assay, initial TEER readings were taken and cytokines were added to the basolateral media (50 ng/mL TNFα, 25 ng/mL IFNγ and 10 ng/mL IL-1β) to reduce barrier integrity while compounds diluted in (dimethylsulfoxide) DMSO were added to the apical media in triplicate. After 48 hours, TEER readings were taken again and viability was measured by CellTiter 96® AQueous One Solution Cell Proliferation Assay (Promega). The percent change in TEER over the 48 hours was determined and normalized to the 0.1% DMSO control (Table 6)."}, "[3]": {"test_system": "Human Peripheral Blood Monocytes (PBMCs)", "experiment": "Cytokine release from human PBMCs", "assay_type": "cell-based", "settings": "100 μM, LPS, 24 hours", "experimental": "Human donor blood (8 mL) was collected in sodium citrate CPT tubes and centrifuged at 1,600×g for 20 minutes at room temperature. […] PBMCs samples were centrifuged at 400×g for 10 minutes at 10° C. […] PBMCs were filtered through a 70 micron mesh to remove any cellular debris. […] PBMCs in a 96-well plate were rested for 30 minutes in a 37° C., 5% CO2 incubator, then subsequently treated with 10 μl of indicated compound. After 2 hours 10 μL of LPS (O111:B4) 1 mg/mL was added to test wells. After 24 hours of incubation at 37° C., 5% CO2, 100 μL of cell supernatant was collected and transferred to a 96-well plate (non-tissue treated, flat bottom). The plate was centrifuged at 350×g for 5 minutes at room temperature, and then the clear supernatant transferred to a new 96-well plate (non-tissue treated, flat bottom). The remaining cells were tested for viability using CellTiter-Glo® Luminescent Cell Viability Assay (Promega). The supernatant was analyzed for TNFα, IL-6 and IL-1β (kit LXSAHM-03; R&D Systems), using Luminex Immunoassay Technology (MAGPIX System). Cytokine levels of LPS treated DMSO control samples were set to 100%, and compound treated samples were expressed relative to this (Table 13)."}, "[4]": {"test_system": "Primary human subcutaneous adipocytes", "experiment": "Glucose uptake in human subcutaneous adipocytes, insulin resistant model", "assay_type": "cell-based", "experimental": "As described above, primary human subcutaneous adipocytes were differentiated for two weeks prior to treatment. To induce an insulin resistant state, cells were treated in serum free Dulbecco's Modified Eagle Medium (high glucose) and […] for 24 hours. Cells were simultaneously treated with compounds diluted in DMSO for 24 hours. As described above, after 24 hours, media was exchanged for assay buffer and the compounds were added again but in the presence of approximately 1 nM insulin. Cells were washed and lysed after 2 hours and glucose uptake was measured. […] Statistical changes in glucose uptake were determined by way ANOVA and compared to DMSO."}, "[5]": {"test_system": "Primary human subcutaneous adipocytes", "experiment": "Glucose uptake in human subcutaneous adipocytes, insulin sensitive model", "assay_type": "cell-based", "experimental": "Primary human subcutaneous adipocytes (Zen Bio, Research Triangle Park, N.C.) were differentiated for two weeks prior to treatment. Cells were treated with indicated compounds diluted in (dimethyl-sulfoxide) DMSO in serum free medium for 24 hours in triplicate. After 24 hours, media was exchanged for assay buffer and the compounds were added again but in the presence of approximately 1 nM insulin. Glucose uptake was initiated with the addition of a cocktail containing 2-deoxyglucose and ^3H-2-deoxyglucose and allowed to incubate for 2 hours. Cells were washed, lysed and glucose uptake was measured as counts per well. As an assay control, 100 nM of insulin was used during the 2 hours of glucose uptake. […] Statistical changes in glucose uptake were determined by way ANOVA and compared to DMSO."}, "[6]": {"test_system": "naïve CD4+ T cells", "experiment": "Human regulatory T cell differentiation assay", "assay_type": "cell-based", "settings": "6 days", "summary_of_the_method": "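Naïve CD4+ T cells from healthy-donor PBMCs cultured 6 days in OpTmizer medium with 5 ng/ml TGF-β, 100 U/ml IL-2 and CD3/CD28/CD2 activator, with or without compound. Tregs (live CD4+CD3+CD25+FOXP3+, lineage-negative) measured by flow cytometry and expressed as % of total CD4+ T cells.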"}, "[7]": {"test_system": "Mouse myocyte", "experiment": "Mouse myocyte lipolysis assay", "assay_type": "cell-based"}, "[8]": {"test_system": "Mouse 3T3-L1 cells", "experiment": "Mouse adipocyte lipolysis assay", "assay_type": "cell-based", "settings": "24 hours", "experimental": "Once the cells became confluent, they were seeded into a tissue culture treated 96 well plate. […] After 14 days of differentiation, cells were treated with compounds of interest. After 24 hours post-treatment, the cell viability was assessed using CellTiter-Glo Luminescent Cell Viability Assay from Promega, and lipolysis was determined using Lipolysis Assay Kit from ZenBio."}, "[9]": {"test_system": "DIO-NASH mice", "experiment": "DIO animal model of NAFLD/NASH (Example 15)", "assay_type": "in vivo", "settings": "0.03% in AMLN diet, vs DIO-NASH vehicle", "experimental": "The effect of 8 weeks of treatment for the indicated compounds on metabolic liver disease in pre-biopsied, 43-week old male DIO-NASH mice was evaluated (12 animals per group). Male C57BL/6JRj mice were fed 40% fat (18% trans-fat), 40% carbohydrate (20% fructose), and 2% Cholesterol (AMLN) diet for 38 weeks. All mice entering the experiment were pre-biopsied stratified based on liver biopsy (only animals with fibrosis stage ≥1 and steatosis score ≥2 were included). Animals were randomized into groups based on Col1a1 immunostaining. Mice were treated for a total of 8 weeks of dosing (drugs in diet, ad lib). […] Elafibranor was supplied by the vendor. Body weight was measured daily for the entire study period. Food intake was monitored daily for first 14 days and then twice a week until study end. Day 28 collection of tail vein blood/serum and feces. Terminal plasma was collected for biomarker determination of liver transaminases (ALT, AST), triglyceride and cholesterol. Terminal liver was removed, weighed, and sampled for 1) FFPE (histology), 2) frozen (biochemistry and nucleic acid). Liver biopsy histology: pre- and post-treatment NAFLD Activity Score (HE) including Fibrosis Stage (PSR), 2) post-treatment steatosis (HE), 3) post-treatment lipid-droplet #+size (HE), 4) post-treatment Galectin-3 (IHC), 5) pre- and post-treatment Collagen 1a1 (IHC), 6) post-treatment α-SMA (IHC). […]"}}, "data": [{"compound": "CC(O)CCO", "note": "(stereo not shown) [butanediol, 1,3-butanediol]", "values": [{"measurement": "Average CYP1A1 mRNA levels", "setting": "[1]; Conc. 500.0 μM", "result": "− (− = +2-fold Vehicle)"}, {"measurement": "% Change in TEER from DMSO", "setting": "[2]; 100 μM + cytokines", "result": "− (≤125%: −)"}, {"measurement": "% Change in TEER from DMSO", "setting": "[2]; 0.5 mM + cytokines", "result": "− (≤125%: −)"}, {"measurement": "IL6 % DMSO control", "setting": "[3]", "result": "= ((=) 90%≥ <110% DMSO)"}, {"measurement": "ILβ % DMSO control", "setting": "[3]", "result": "= ((=) 90%≥ <110% DMSO)"}, {"measurement": "TNFα % of DMSO control", "setting": "[3]", "result": "= ((=) 90%≥ <110% DMSO)"}]}, {"compound": "COC(=O)c1csc(C(=O)c2c[nH]c3ccccc23)n1", "note": "[ITE, 2-(1′H-indole-3′-carbonyl)-thiazole-4-carboxylic acid methyl ester]", "values": [{"measurement": "Average CYP1A1 mRNA levels", "setting": "[1]; Conc. 1.0 μM", "result": "+++ (+++ = >10-fold Vehicle)"}]}, {"compound": "O=C(O[C@@H]1Cc2c(O)cc(O)cc2O[C@@H]1c1cc(O)c(O)c(O)c1)c1cc(O)c(O)c(O)c1", "note": "[EGCG, epigallocatechin gallate]", "values": [{"measurement": "Average CYP1A1 mRNA levels", "setting": "[1]; Conc. 0.1 μM", "result": "− (− = +2-fold Vehicle)"}, {"measurement": "Average CYP1A1 mRNA levels", "setting": "[1]; Conc. 1.0 μM", "result": "− (− = +2-fold Vehicle)"}, {"measurement": "Insulin Resistant % DMSO (glucose uptake)", "setting": "[4]; 100 nM", "result": "+ (110%> ≤140%: +)"}, {"measurement": "Insulin Resistant % DMSO (glucose uptake)", "setting": "[4]; 10 μM", "result": "= (50%> ≤110%: =)"}, {"measurement": "% Change in TEER from DMSO", "setting": "[2]; 100 nM + cytokines", "result": "− (≤125%: −)"}, {"measurement": "% Change in TEER from DMSO", "setting": "[2]; 1 μM + cytokines", "result": "− (≤125%: −)"}, {"measurement": "Insulin Sensitive % DMSO (glucose uptake)", "setting": "[5]; 100 nM", "result": "= (50%> ≤110%: =)"}, {"measurement": "Insulin Sensitive % DMSO (glucose uptake)", "setting": "[5]; 10 μM", "result": "= (50%> ≤110%: =)"}, {"measurement": "Cell viability % DMSO", "setting": "[6]; 100 nM", "result": "= (90%≥ ≤110%: =)"}, {"measurement": "Treg induction % DMSO", "setting": "[6]; 100 nM", "result": "= (90%≥ ≤110%: =)"}, {"measurement": "Cell viability % DMSO", "setting": "[6]; 1 uM", "result": "= (90%≥ ≤110%: =)"}, {"measurement": "Treg induction % DMSO", "setting": "[6]; 1 uM", "result": "= (90%≥ ≤110%: =)"}, {"measurement": "Free glycerol % DMSO", "setting": "[7]; 100 nM", "result": "+ (70%> <90%: +)"}, {"measurement": "Free glycerol % DMSO", "setting": "[7]; 1 μM", "result": "+ (70%> <90%: +)"}, {"measurement": "Lipolysis Free Fatty Acids % DMSO", "setting": "[8]; 100 nM", "result": "++ (50> ≤70%: ++)"}, {"measurement": "Lipolysis Glycerol % change", "setting": "[8]; 100 nM", "result": "+ (70%> ≤90%: +)"}, {"measurement": "Lipolysis Free Fatty Acids % DMSO", "setting": "[8]; 1 μM", "result": "++ (50> ≤70%: ++)"}, {"measurement": "Lipolysis Glycerol % change", "setting": "[8]; 1 μM", "result": "+ (70%> ≤90%: +)"}]}, {"compound": "c1ccc2[nH]ccc2c1", "note": "[indole]", "values": [{"measurement": "Average CYP1A1 mRNA levels", "setting": "[1]; Conc. 1000.0 μM", "result": "+ (+ = >2-fold Vehicle)"}]}, {"compound": "CSc1ccc(C(=O)/C=C/c2cc(C)c(OC(C)(C)C(=O)O)c(C)c2)cc1", "note": "[Elafibranor]", "values": [{"measurement": "liver fibrosis, Picro Sirius red (FIG. 49B)", "setting": "[9]", "result": "the fibrosis is finer"}, {"measurement": "liver morphology: lipid vacuole size (FIG. 48B)", "setting": "[9]", "result": "the vacuoles are smaller"}]}, {"compound": "Cn1cc(C[C@H](N)C(=O)O)c2ccccc21", "note": "[1-methylindole-3-alanine]", "values": [{"measurement": "Average CYP1A1 mRNA levels", "setting": "[1]; Conc. 10.0 μM", "result": "+ (+ = >2-fold Vehicle)"}, {"measurement": "Average CYP1A1 mRNA levels", "setting": "[1]; Conc. 100.0 μM", "result": "+++ (+++ = >10-fold Vehicle)"}]}, {"compound": "OCc1c[nH]c2ccccc12", "note": "[indole-3-carbinol]", "values": [{"measurement": "Average CYP1A1 mRNA levels", "setting": "[1]; Conc. 1000.0 μM", "result": "+ (+ = >2-fold Vehicle)"}]}]}
